Assay results: a melting point compilation (Tetko et al.; mined from patent text by program, amines drawn as free bases though some values may be those of a salt)

Work on `O=C(NC1CCNCC1)N(CCCN1CCC(Cc2ccccc2)CC1)c1ccccc1` yielded a melting point of 85 to 87 °C.
With `Cc1cccc(NC(=O)NC2N=C(c3ccccc3)c3ccccc3N(Cc3cc(C)ccn3)C2=O)c1` (racemic) the melting point was 212 to 213 °C.
`COC(=O)c1ccc2sc(Cl)nc2c1C` showed a melting point of 112 °C.
Compound `COC(=O)c1cc(C(=O)N(C)C)c2cc(Cc3ccc(F)cc3)cnc2c1O` has a melting point of 219 to 220 °C.
`C#CCN1C(=O)c2cccc3cccc(c23)C1=O` showed a melting point of 235 to 237 °C.
Compound `CCOC(=O)c1cn(CCN(CC)CC)c2oc(CN3CCOCC3)cc2c1=O` has a melting point of 131 to 134 °C.
Compound `O=S(=O)(NC1CCOCC1)c1ccc(Cl)cc1` has a melting point of 127 to 129 °C.
Compound `CN(C)c1cc(S(=O)(=O)c2ccccc2)cc(Br)n1` has a melting point of 128 to 130 °C.
For `Fc1ccc(F)c(CN2CCNc3ncc(-c4ccc(N5CCOCC5)cc4)cc32)c1Cl`, the melting point was 217 to 219 °C.
With `CC1(C)CCC(C)(C)c2cc(-c3cc(-c4ccc(C(=O)O)cc4)ccc3-c3cccc(O)c3)ccc21` the melting point was < 70 °C.
`CC(C)C1(CO)Cc2cc(OCC(=O)O)c(Cl)c(Cl)c2C1=O` (stereo unspecified) gave a melting point of 200 to 202 °C.
`CC1c2cccc3c2N(CC3)c2ccccc2N1C(=O)CN(C)C` (stereo unspecified) gave a melting point of 104 to 108 °C.
`c1ccc(N2CCN(CCc3ccc4ccccc4n3)CC2)cc1` gave a melting point of 79 °C.
`CNC(=O)n1nc(Oc2ccc(C(F)(F)F)cc2[N+](=O)[O-])cc1C` gave a melting point of 70 to 72 °C.
Compound `CC(C)(C)n1c(=O)c2c(-c3ccc(F)cc3)ncn2c2ccccc21` has a melting point of 135 to 137 °C.
For `CCCN(CCCNc1ncc(Cc2ccc(C)nc2)c(=O)[nH]1)c1ccccn1`, the melting point was 83 to 90 °C.
In the case of `CC(C)C(=O)N[C@@H](CSC(=O)C(C)C)C(=O)NCCSC(=O)C(C)C`, the melting point is reported as 94 to 96 °C.
In the case of `CCOCc1nc2c(N)nc3cccnc3c2n1CC1(O)CC1`, the melting point is reported as 178 to 179 °C.
In the case of `COc1ccc(C=O)cc1C(=O)NCc1ccc(C(F)(F)F)cc1`, the melting point is reported as 116 to 117 °C.
`O=[N+]([O-])c1ccc(OCC(O)CO)c(O)c1` (stereo unspecified) gave a melting point of 162 °C.
`O=C(CCCN1CCN(c2cc3ccccc3cn2)CC1)c1cccs1` showed a melting point of 94 to 100 °C.
With `Cc1cc(OCC(F)(F)F)c(Cl)cc1[N+](=O)[O-]` the melting point was 76 to 79 °C.
`O=C(O)CCCOc1ccc(CSc2[nH]nc(NS(=O)(=O)c3c(Cl)cccc3Cl)c2-c2ccccn2)cc1` showed a melting point of 183 to 185 °C.
Work on `CCOC(=O)Cc1ccc2c(c1)C(c1ccccc1Cl)=NCc1nnc(C)n1-2` yielded a melting point of 157 to 158 °C.
For `COc1ncc(-c2cc(NC(=O)c3csc(CN4C[C@@H](C)O[C@@H](C)C4)n3)c3cn[nH]c3c2)cc1NS(=O)(=O)c1ccc(F)cc1F`, the melting point was 211 to 212 °C.
With `O=[N+]([O-])c1cccc2ccc3nc(O)c(O)nc3c12` the melting point was > 300 °C.
`CCCCCC(O)CCc1ccc(CCCCCCCC(=O)O)o1` (stereo unspecified) gave a melting point of 43 to 45 °C.
Work on `CCOC(=O)CCN1CCN(C2=Nc3ccccc3Oc3ccc(Cl)cc32)CC1` yielded a melting point of 73 to 75 °C.
Work on `O=CC(=C1NCCCS1)[N+](=O)[O-]` yielded a melting point of 171 to 172 °C.
Work on `CC(=O)CCN1CCC(=C2c3ccccc3CCc3ccccc32)CC1` yielded a melting point of 113 to 114 °C.
For `Cc1ncoc1C(C)(O)c1ccsc1` (stereo unspecified), the melting point was 87 to 89 °C.
Work on `CC#CCOc1ccc(SC(C(=O)NO)c2ccc(Cl)cc2)cc1` (stereo unspecified) yielded a melting point of 152 °C.
In the case of `Cc1ccc(Cl)cc1N1C(=O)C(=O)N(C)C1=S`, the melting point is reported as 171 to 173 °C.
Work on `CC(C)(O)COC1CCNCC1` yielded a melting point of 80 to 82 °C.
`COc1ccc(N2CCN(c3ccc(F)cc3)C(=O)C2)c(-c2ccc(N(C)C)cc2)n1` showed a melting point of 158 to 164 °C.
Compound `Nc1ccc(C(=O)N2CCNC(=O)C2c2cccs2)cc1` (stereo unspecified) has a melting point of 181 to 182 °C.
Compound `Cc1cc(C)cc(SCC(=O)c2ccc(C(C)C)cc2)c1` has a melting point of 46 to 47 °C.
Work on `CN(C)C=C1C(=O)N(c2ccccc2)C(=O)N1C` yielded a melting point of 131 to 133 °C.
`Cc1cc([N+](=O)[O-])cc(C)c1Oc1ccc(O)c(Cc2ccc(F)cc2)c1` gave a melting point of 127 to 132 °C.
In the case of `NNc1nccc(-c2ccc3c(ccn3-c3ccccn3)c2)c1Cl`, the melting point is reported as 173 °C.
Compound `O=C1c2ccccc2C(=O)N1Cc1ccc(I)cc1` has a melting point of 138 to 139 °C.
`O=C(Nc1ccc2cc(CN3CCC(CCO)CC3)cnc2c1)c1ccc(-c2ccc(Cl)cc2)cc1` showed a melting point of 204 °C.
With `CNC1(C(=O)O)CCN(OC)CC1` the melting point was > 250 °C.
With `O=C(O)C1=C(c2ccccc2)c2cc(Cl)ccc2OC1C(F)(F)F` (stereo unspecified) the melting point was 226 to 227 °C.
Compound `CN(CC(=O)[C@H](Cc1ccccc1)NC(=O)NC1CCCCC1)C(=O)N1CCC[C@H]1C(=O)O` has a melting point of 75 to 110 °C.
For `COC(=O)c1cc[nH]c1`, the melting point was 78 to 81 °C.
With `N#CC(C#N)(CC=C(Cl)Cl)Cc1ccc(Cl)cc1` the melting point was 67.5 °C.
Work on `CCCC(=O)C1=C(O)CC(C2(C)CC(C(C)CC)=NO2)CC1=O` (stereo unspecified) yielded a melting point of 53 to 55 °C.
`O=C1NC(C(=O)NCCO[N+](=O)[O-])C(c2cccc3ccccc23)S1` (stereo unspecified) gave a melting point of 151 to 153 °C.
With `CC(C)(C)OC(=O)N1CCN(c2ccc3oc(C(N)=O)cc3c2)CC1` the melting point was 198 to 200 °C.
`N#CC=C(c1ccccc1C(F)(F)F)c1ccccc1C(F)(F)F` showed a melting point of 65 to 68 °C.
In the case of `CC1(C)Oc2ccc(-n3c(=O)[nH]c4cccnc43)cc2O1`, the melting point is reported as 223 to 224 °C.
`CCOC(=O)c1cc2cccnc2n1Cc1ccccc1` showed a melting point of 71 to 72 °C.
In the case of `O=C1OCCN1N=C1CCOc2ccc([N+](=O)[O-])cc21`, the melting point is reported as 168 to 170 °C.
For `CC(C)(C)OC(=O)NCC(CC(=O)Nc1ccccc1)c1ccc(Cl)cc1` (stereo unspecified), the melting point was 165 to 167 °C.
In the case of `CCN1C(=O)C(C)(C)C(=O)N(C)c2cc(CCN(CCn3cc(C)c4occc4c3=O)Cc3cnccc3C)ccc21`, the melting point is reported as 165 to 166 °C.
Work on `CCOP(=O)(/C=C/c1cn(-c2ccccc2)nc1OCc1ccc(OCc2csc(N3CCOCC3)n2)c(OC)c1)OCC` yielded a melting point of 93 to 94 °C.
Compound `Cc1cc(C)c2nc(NC3CCN(CCCO)CC3)n(Cc3nc(C)ccc3O)c2c1` has a melting point of 172 °C.
In the case of `O=c1c2ccccc2nc2n1CS(=O)(=O)N2`, the melting point is reported as > 300 °C.
For `Cc1cc(CSc2cccc(OCc3cccc4ccccc34)c2)oc(=O)c1`, the melting point was 139 °C.
Compound `CCOc1cc(Cc2cnc(N)nc2N)cc(OCC)c1-c1ccc(CNCC(F)(F)F)cc1` has a melting point of 146 to 149 °C.
`COc1cc(Nc2c(C#N)cnc3cc(C#CCN4CCN(C)CC4)sc23)cc(OC)c1OC` gave a melting point of 180 to 182 °C.
`COc1ccc(C(=O)n2c(Br)c(Br)c(C#N)c2Br)cc1` gave a melting point of 86 to 89 °C.
With `CNc1nc(Cl)cc(NS(=O)(=O)c2ccc(F)cc2)n1` the melting point was 121 to 123 °C.
`CCCCOc1cc2cc(C(=O)OC)c(C(=O)OC)c(-c3ccncc3)c2cc1OC` gave a melting point of 149 to 151 °C.
`Clc1ccc2c(c1)C(c1ccccc1Cl)=NCCN2C1=NCCS1` gave a melting point of 123 to 124 °C.
`CC1(C)OC(=O)C(Oc2ccc(Cl)cc2)=C1c1ccc(S(C)(=O)=O)cc1` gave a melting point of 113 to 114 °C.
With `COc1ccc2c(C)c3c(c(-c4ccc(F)cc4)c2c1)CNC3=O` the melting point was 236 to 238 °C.
Compound `COc1ccc2cc(CC[Si](C)(C)C)c(=O)oc2c1` has a melting point of 130 to 132 °C.
`CC(C)CNC(=O)C=CCBr` showed a melting point of 94 to 95 °C.
`COc1cc(COc2nn(Cc3ccccc3)cc2C(C)O)ccc1OCc1nc(-c2ccco2)oc1C` (stereo unspecified) showed a melting point of 105 to 106 °C.
